# Test results taken from patent US10913738B2 (BRISTOL-MYERS SQUIBB COMPANY, priority 2017, dated 2021).
# Where two headings read alike, the source gives them in different places.
# Assays:
# [1] = system: MLKL phosphorylation in HT29-L23 human colorectal adenocarcinoma cells; assay: MLKL Phosphorylation High-Content Assay; format: cell-based; conditions: Homo sapiens
# Summary of the method: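 Cells incubated six hours at 37° C., then phospho-MLKL (S358) immunostained overnight at 4° C. and imaged by high-content microscopy. Phosphorylation quantified as mean circ-ring average intensity ratio; IC50 and Ymax from 4-parameter logistic fits.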
# [2] = system: IL-6; assay: TNF-Induced SIRS, serum cytokines (IL-6, KC) by ELISA; format: in vivo; conditions: mouse, relative to 6 mg/kg Nec-1s, read-out: % protection from IL6 increase; for inhibition in vivo at 0.4 mg/kg: 0.4 mg/kg oral gavage 2 h before mTNF; for inhibition in vivo at 1 mg/kg: 1.0 mg/kg oral gavage 2 h before mTNF
# Experimental: (§1) TNF-Induced Systemic Inflammatory Response Syndrome (SIRS)
# (§2) RIPK1 inhibitors were evaluated for efficacy in vivo using a TNF-dependent model of systemic “shock”, also known as systemic inflammatory response syndrome (SIRS) (Duprez et al. 2011, Immunity 35(6):908-918). Intravenous injection of murine TNF induces a systemic inflammatory response characterized by a decrease in body temperature and an increase in circulating cytokines (IL-6, KC) in the serum. The addition of zVAD-fmk strongly sensitizes mice to TNF-induced shock through the inhibition of caspases (Cauwels et al., 2003). The combination of pretreatment with zVAD-fmk prior to injection of mTNF forms the basis of the RIPK1-dependent, TNF-induced, inflammatory response in this model.
# (§3) Female C57/Bl6 mice (9 to 11 weeks old) were obtained from Jackson Labs (Bar Harbor, Me.). Mice were housed in BMS' animal facility with ad libitum access to food and water. Mice were and allowed to acclimate for at least 2 weeks and typically weighed at least 21 grams before being used in any studies. Group size was 6 mice per treatment. All experiments were conducted with the approval of BMS' Institutional Animal Care and Use Committee (IACUC)
# (§4) Program compounds were dosed by oral gavage 2 h before IV challenge with 20 μg of murine TNF (#CRT192C, Cell Sciences, Canton, Mass.). zVAD-fmk (16.7 mg/kg) was given IV, 15 min before mTNF injection. The RIPK1 kinase inhibitor, necrostatin-1s (Nec-1s) was used as a positive control and was dosed at 6 mg/kg, IV, 30 minutes before mTNF challenge. mTNF was diluted in endotoxin-free PBS and 20 μg/mouse was injected in a volume of 0.1 ml into the retro-orbital sinus. All IV injections were done via the retro-orbital sinus and injection sites were alternated (left and right sides).
# (§5) Blood samples for PK determination were collected into heparinized microtainer blood tubes (Part #365965, Becton Dickinson, Franklin Lakes N.J.) and mixed well. Dried blood spots (DBS) were prepared by pipetting 10 μl of whole blood, in duplicate, onto bioanalysis cards (#GR2261004, Perkin Elmer, Greenville, S.C.). A serum sample was obtained by collecting blood into a separator tube (#450472, Greiner Bio-One, Austria) and centrifuged (10 min at 10,000 RPM) to separate the serum. All blood samples were obtained from the retro-orbital sinus while under isoflurane anesthesia.
# Serum cytokines were evaluated by ELISA assay. IL-6 was measured using OPTeia Kit (Becton Dickinson, Franklin Lakes N.J.) while KC was measured using an R&D Duoset kit (R&D Systems Inc. Minneapolis, Minn.)
# (§6) Using these assays, the percent protection of body temperature and percent reduction in IL6 cytokine of the following compounds were determined. See Table B. % Protection is relative to a 6 mg/kg dose of Nec-1s (5-((7-Cl-1H-indol-3-yl)methyl)-3-methylimidazolidine-2,4-dione)).
# [3] = target: T1, His-GST-TVMV-hRIPK1(1-324) (Homo sapiens, UniProt Q13546); assay: RIPK1 HTRF Binding Assay
# T1 construct: The coding region of human RIPK1(1-324) flanked by NdeI site at 5′ end; made in house; host or cells: Spodoptera frugiperda (Sf9) insect cells, baculovirus
# T1 sequence (Q13546 1-324): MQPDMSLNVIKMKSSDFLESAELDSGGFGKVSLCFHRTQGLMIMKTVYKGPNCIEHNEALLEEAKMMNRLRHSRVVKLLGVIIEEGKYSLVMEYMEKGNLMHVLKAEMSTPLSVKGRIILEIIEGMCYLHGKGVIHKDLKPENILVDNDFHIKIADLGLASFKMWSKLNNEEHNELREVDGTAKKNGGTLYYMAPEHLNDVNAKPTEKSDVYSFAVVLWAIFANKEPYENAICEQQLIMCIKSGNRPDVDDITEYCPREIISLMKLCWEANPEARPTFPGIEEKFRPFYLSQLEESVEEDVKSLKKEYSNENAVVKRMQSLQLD
# [4] = Exposure in TNF-induced SIRS study (blood samples for PK determination); format: in vivo; conditions: mouse
# Experimental: as §4, §5
# [5] = system: Female C57/Bl6 mice, mTNF + zVAD-fmk induced hypothermia; assay: TNF-Induced Systemic Inflammatory Response Syndrome (SIRS), body temperature; format: in vivo; conditions: mouse, 3 h after mTNF, relative to 6 mg/kg Nec-1s, read-out: % protection from body temp loss; for inhibition in vivo at 0.4 mg/kg: 0.4 mg/kg oral gavage 2 h before mTNF; for inhibition in vivo at 1 mg/kg: 1.0 mg/kg oral gavage 2 h before mTNF
# Experimental: as §1, §2, §3, §4
# Three (3) hours after mTNF injection, mice were assessed for hypothermia and mortality. Rectal body temperature was recorded with an electric thermometer (Acorn Series Model JKT with a Ret-3 probe, Oakton Instruments Vernon Hills Ill. 60061).
# as §6
# [6] = x marks IC50 class <20 nM, read-out: pMLKL cell activity <20 nM
# [7] = 0.1 mg/kg oral gavage 2 h before mTNF
# [8] = x marks IC50 class <20 nM, read-out: RIPK1 HTRF binding <20 nM
# [9] = x marks IC50 class 20-200 nM, read-out: pMLKL cell activity 20-200 nM
SMILES,"IC50 [1, 6] [nM]","inhibition in vivo at 0.1 mg/kg [2, 7] [%]","IC50 [3, 8] [nM]",Exposure ([4]; 0.1 mg/kg oral gavage) [nM],"inhibition in vivo at 0.1 mg/kg [5, 7] [%]","IC50 [1, 9] [nM]",inhibition in vivo at 0.4 mg/kg [2] [%],Exposure ([4]; 0.4 mg/kg oral gavage) [nM],inhibition in vivo at 0.4 mg/kg [5] [%],inhibition in vivo at 1 mg/kg [2] [%],"IC50 ([3]; x marks IC50 class 20-200 nM, read-out: RIPK1 HTRF binding 20-200 nM) [nM]",Exposure ([4]; 1.0 mg/kg oral gavage) [nM],inhibition in vivo at 1 mg/kg [5] [%]
"COc1ncc(-c2ccn3nc(N)nc3c2)cc1C(=O)NC(C)c1ccccc1OC(F)(F)F (single isomer, unassigned) [Example 38-1, 5-{2-Amino-[1,2,4]triazolo[1,5-a]pyridin-7-yl}-2-methoxy-N-{1-[2-(trifluoromethoxy)phenyl]ethyl}pyridine-3-carboxamide]",< 20,93,< 20,12,80,,,,,,,,
"COc1ncc(-c2ccn3nc(N)nc3c2)cc1C(=O)NCc1cccc(OC(F)(F)F)c1 [Example 58, 5-{2-Amino-[1,2,4]triazolo[1,5-a]pyridin-7-yl}-2-methoxy-N-{[3-(trifluoromethoxy)phenyl]methyl}pyridine-3-carboxamide]",,,< 20,,,20 to 200,78,409,113,,,,
"COc1ncc(-c2ccn3nc(N)nc3c2)cc1C(=O)NCc1ccccc1OC(F)(F)F [Example 74, 5-{2-Amino-[1,2,4]triazolo[1,5-a]pyridin-7-yl}-2-methoxy-N-{[2-(trifluoromethoxy)phenyl]methyl}pyridine-3-carboxamide]",,,< 20,,,20 to 200,87,117,115,,,,
"COc1ncc(-c2ccn3nc(N)nc3c2)cc1C(=O)NCCCc1ccccc1 [Example 102, 5-{2-amino-[1,2,4]triazolo[1,5-a]pyridin-7-yl}-2-methoxy-N-(4-phenylpropyl)pyridine-3-carboxamide]",,,,,,20 to 200,,,,82,20 to 200,1287,107
"COc1ncc(-c2ccn3nc(N)nc3c2)cc1C(=O)NCc1cc(F)cc(F)c1OCC1CC1 [Example 131, 5-{2-amino-[1,2,4]triazolo[1,5-a]pyridin-7-yl}-N-{[2-(cyclopropylmethoxy)-3,5-difluorophenyl]methyl}-2-methoxypyridine-3-carboxamide]",< 20,,< 20,,,,8,50,15,,,,
"COc1ncc(-c2ccn3nc(N)nc3c2)cc1C(=O)N1CCC[C@@H](Cc2ccc(F)cc2)C1 [Example 136, 7-{5-[(3S)-3-[(4-fluorophenyl)methyl]piperidine-1-carbonyl]-6-methoxypyridin-3-yl}-[1,2,4]triazolo[1,5-a]pyridin-2-amine]",< 20,,< 20,,,,80,364,106,,,,
"COc1ncc(-c2ccn3nc(N)nc3c2)cc1C(=O)NCc1cc(OC(F)(F)F)ccc1F [Example 160, 5-{2-amino-[1,2,4]triazolo[1,5-a]pyridin-7-yl}-N-{[2-fluoro-5-(trifluoromethoxy)phenyl]methyl}-2-methoxypyridin-3-carboxamide]",,,< 20,,,20 to 200,,,,60,,693,107
"Cc1ncc(-c2ccn3nc(N)nc3c2)cc1C(=O)NC(C)c1cccc(OC(F)(F)F)c1 (stereo not drawn) [Example 251, 5-{2-amino-[1,2,4]triazolo[1,5-a]pyridin-7-yl}-2-methyl-N-{1-[3-(trifluoromethoxy)phenyl]ethyl}pyridine-3-carboxamide]",,,,,,20 to 200,,,,97,,1208,86
